Key:
Test in all cases: relative viability (nuclei count vs DMSO), 5 days (fraction); higher = more cells survive
RU-SKI 43 = compound: CC[C@@H](C)CNCC(=O)N1CCC2=C([C@@H]1COC3=CC=CC(=C3)C)C=CS2 [RU-SKI 43]
In short: (§1)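 Five library-drug doses spaced by √10 were pinned onto vehicle-anchored 1536-well plates of lung cancer cell lines that had been kept overnight at 37 °C. Cells went 5 days without medium change, then were fixed, permeabilised and Hoechst-stained together, imaged at 4× and counted by MetaXpress. Viability is the ratio of treated-well to vehicle-well nuclei, taken as a median over plates. Plates required control CV below 25% and at least one doubling.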

MK-8033 = compound: Cn1cc(-c2cnc3ccc4ccc(CS(=O)(=O)NCc5ccccn5)cc4c(=O)c3c2)cn1 [MK-8033]
In short: as §1

Irinotecan = compound: CCc1c2c(nc3ccc(OC(=O)N4CCC(N5CCCCC5)CC4)cc13)-c1cc3c(c(=O)n1C2)COC(=O)[C@]3(O)CC [Irinotecan]
In short: as §1

MK-8033 + Olaparib = compound: Cn1cc(-c2cnc3ccc4ccc(CS(=O)(=O)NCc5ccccn5)cc4c(=O)c3c2)cn1 [MK-8033] + O=C(c1cc(Cc2n[nH]c(=O)c3ccccc23)ccc1F)N1CCN(C(=O)C2CC2)CC1 [Olaparib] (partner 8 µM)
In short: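 Nuclei were stained with Hoechst during a one-step fixation (final 0.05% Triton X-100, 1% formaldehyde, 1 ug/ml Hoechst) carried out 5 days after dosing, then counted on 4× images. The cells, lung cancer lines in 1536-well plates, had been dosed by pin tool the day after seeding with one drug alone or a fixed anchor-drug dose plus five library-drug doses (not always all listed) in √10 steps. Relative viability is the nuclei count in treated wells divided by that in vehicle wells, and each value is the median of duplicate plates.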

In the case of UMC-11, the relative viability (RU-SKI 43; 0.1 µM) is reported as 1.07, the relative viability (RU-SKI 43; 0.3162 µM) is reported as 1.11 and the relative viability (RU-SKI 43; 1 µM) is reported as 1.08. It also gave a relative viability (RU-SKI 43; 3.162 µM) of 1.07, a relative viability (RU-SKI 43; 10 µM) of 0.843 and a relative viability (MK-8033; 0.02 µM) of 0.962. It also gave a relative viability (MK-8033; 0.06325 µM) of 0.837, a relative viability (MK-8033; 0.2 µM) of 0.916 and a relative viability (MK-8033; 0.6325 µM) of 1. It also gave a relative viability (MK-8033; 2 µM) of 0.982, a relative viability (Irinotecan; 0.6325 µM) of 0.677 and a relative viability (Irinotecan; 2 µM) of 0.675. For the same cell line, the relative viability (Irinotecan; 6.325 µM) was 0.401, the relative viability (Irinotecan; 20 µM) was 0.264 and the relative viability (MK-8033 + Olaparib; first compound 0.02 µM) was 0.449. The relative viability (MK-8033 + Olaparib; first compound 0.06325 µM) was 0.375, the relative viability (MK-8033 + Olaparib; first compound 0.2 µM) was 0.353 and the relative viability (MK-8033 + Olaparib; first compound 0.6325 µM) was 0.405. The relative viability (MK-8033 + Olaparib; first compound 2 µM) was 0.37.

— the supplement of paper PMC10307832
